According to patent US5364944A, “Substituted benzoylbenzene-, biphenyl- and 2-oxazole- alkanoic acid compounds” (American Home Products Corporation, priority 1993, dated 1994):

Key:
[1] = target: T1, LTD4-induced contractions of isolated guinea pig trachea (Cavia porcellus, UniProt Q2NNR5); assay: In vitro isolated guinea pig trachea assay, LTD4 antagonist activity; set-up: species or system guinea pig (male Hartley); conditions: 1 × 10^-5 M
T1 construct: isolated guinea pig trachea; from tissue; host or cells: tracheal rings of male Hartley guinea pigs
T1 sequence (Q2NNR5 1-340): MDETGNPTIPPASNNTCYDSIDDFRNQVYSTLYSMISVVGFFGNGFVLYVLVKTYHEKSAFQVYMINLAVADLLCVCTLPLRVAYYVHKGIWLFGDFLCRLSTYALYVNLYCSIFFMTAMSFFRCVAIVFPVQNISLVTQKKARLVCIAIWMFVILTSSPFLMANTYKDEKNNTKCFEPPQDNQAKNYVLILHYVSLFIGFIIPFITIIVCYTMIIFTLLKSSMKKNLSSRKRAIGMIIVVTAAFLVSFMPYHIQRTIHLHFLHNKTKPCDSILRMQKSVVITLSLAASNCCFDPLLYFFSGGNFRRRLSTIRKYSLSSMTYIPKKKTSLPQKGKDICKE
Protocol: The LTD4 antagonist activity of the compounds of the invention is assessed in the in vitro isolated guinea pig trachea assay. This assay is carried out as follows: Male Hartley guinea pigs (350-400 g) are euthanized by a blow to the head, the neck is opened and the trachea removed. The trachea is maintained in aerated physiological salt solution, cleared of connective tissue and fat and cut into rings approximately 2 mm in width (usually containing two cartilaginous segments per ring). Two pieces of silk suture are then passed through the lumen of the tracheal ting and are tied around the cartilage, one on each side of the trachealis muscle. The tracheal ring is suspended between a glass hook and a force displacement transducer in a 10 ml organ bath for measurement of isometric tension. […] The tracheal rings are maintained at 2 g resting tension and equilibrated for 45 minutes (with frequent washing and readjustment of resting tension). The tracheal […] contracted by the addition of carbachol (3×10^-6 M), to determine tissue responsiveness and establish a reference contraction. On attainment of a stable level of contraction (approximately 30 minutes), the tissues are washed several times until baseline tension has been restored and the re-equilibrated for 30 minutes. The tissues are then incubated for 45 minutes with a test antiagonist (either 1×10^-6 M or 1×10^-5 M) or 10 μl of an appropriate solvent control (control, nontreated). One tissue in each group serves as the control. Twenty minutes prior to the construction of the LTD4 cumulative concentration-response curve, L-[…]×10^-2 M final bath concentration) is added to inhibit bioconversion of LTD4 to LTE4. Only one LTD4 concentration-response curve is constructed in each tissue. All responses to LTD4 in an individual tissue are measured as a percentage of the reference contraction of that tissue to carbachol. LTD4 antagonist activity is determined by comparison of the concentration response curves of LTD4 in the presence and absence of antagonist. Assessment of the relative rightward shift of the antagonist treated curve relative to the solvent (control) treated tissue is calculated as a concentration ratio (Eq. A) and used in subsequent calculations to derive an antagonist pKB value (Eqs. B and C). […] If a compound is found to be active and/or depress the maximal response to LTD4, then a range of concentrations of the test compound should be used generating multiple concentration ratios which would then be used to perform a Schild analysis, and determination of a pA2 value where appropriate.

[2] = system: 5-lipoxygenase in human whole blood; assay: Inhibition of 5-lipoxygenase in human whole blood (LTB4); type: cell-based
Outline: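 Donor whole blood was preincubated with compound (0.1% final DMSO) 10 min at 37° C, then stimulated with 30 μM A23187 for 20 min at 27° C and stopped with EGTA on ice. Plasma LTB4 quantified by RIA or ELISA as ng/10^6 neutrophils; effects given as percent change from control.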

Kb [1]: > 10 µM
IC50 [2]: 7.8 µM
SMILES: CC(C(=O)N(C)O)c1ccc(-c2ccc(OCc3csc(-c4ccccc4)n3)cc2)cc1 (stereo not drawn) [Example 21, N-Hydroxy-N,α-dimethyl-4'-[(2-phenylthiazol-4-yl)methoxy][1,1'-biphenyl]-4-acetamide]
% Inhibition of LTB4 ([2]; at 25 μM): 85%
